Where only a bound is given, the exact number is not on record here.

Broadly, the logP is the decadic logarithm of the partition coefficient of the neutral form, usually between octanol and water. In general, log P refers to the decadic logarithm of the partition coefficient of the neutral form, usually between octanol and water. A low value points to lower lipophilicity.

The nature of data set [1]: logP determination by HPLC on reversed-phase column (C18), EEC Directive 79/831 Annex V.A8. The class given is physicochemical. The conditions noted are these: for log P: value in preparation example text. On the procedure: • The logP values given in the Tables and Preparation Examples above are determined in accordance with EEC Directive 79/831 Annex V.A8 by HPLC (High Performance Liquid Chromatography) on a reversed-phase column (C18). Temperature: 43° C.
The determination is carried out in the acidic range at pH 2.3 using the mobile phases 0.1% aqueous phosphoric acid and acetonitrile; linear gradient from 10% acetonitrile to 95% acetonitrile. […]
Calibration is carried out using unbranched alkan-2-ones (having 3 to 16 carbon atoms) with known logP values (determination of the logP values by the retention times using linear interpolation between two successive alkanones).

For data set [2], the system named is cereal. The data set is described as follows: Herbicidal post-emergence action with use of safeners (Example G): container trials with cereal in a greenhouse, mefenpyr 1 day prior to herbicide application. Type of data set: in vivo. To be noted: without safener. On the procedure:
Herbicidal Post-Emergence Action
Seeds of monocotyledonous and dicotyledonous weed and crop plants are placed into sandy loam in wood fiber pots or in plastic pots, covered with soil and cultivated in a greenhouse, during the vegetation period also outdoors outside of the greenhouse, under good growth conditions. Two to three weeks after sowing, the test plants are treated at the one- to three-leaf stage. The test compounds, formulated as wettable powders (WP) or liquid (EC), are, in various dosages at a water application rate of 300 l/ha (converted), with wetting agent (0.2 to 0.3%) added, sprayed onto the plants and the surface of the soil. […]
If it is additionally to be tested as to whether safeners can improve the plant compatibility of test substances in the case of crop plants, the following options are used for applying the safener: • seeds of the crop plants are, before sowing, dressed with the safener substance (the amount of safener stated in percent, based on the weight of the seed) • before the application of the test substances, the crop plants are sprayed with the safener at a certain application rate per hectare (usually 1 day before the application of the test substances) • the safener is applied together with the test substance as a tank mix (the amount of safener is stated in g/ha or as a ratio, based on the herbicide).
By comparing the effect of test substances on crop plants without or with safener treatment, it is possible to assess the effect of the safener substance.
Container Trials with Cereal in a Greenhouse
Mefenpyr 1 day prior to herbicide application

In data set [3] the test system is brown plant hopper (Nilaparvata lugens). The experiment in a line: Nilaparvata lugens test (hydroponic treatment). The class given is in vivo. The conditions noted are these: concentration of 20 ppm. On the procedure: Nilaparvata Lugens Test (Hydroponic Treatment)
Solvents: 78 parts by weight of acetone • • 1.5 parts by weight of dimethylformamide
Emulsifier: 0.5 part by weight of alkylaryl polyglycol ether
To produce a suitable preparation of active compound, 1 part by weight of active compound is mixed with the stated amounts of solvents and emulsifier, and the concentrate is diluted with emulsifier-containing water to the desired concentration.
The active compound preparation is pipetted into water. The stated concentration refers to the amount of active compound per volume unit of water (mg/l=ppm). After the desired period of time, the water is infected with the brown plant hopper (Nilaparvata lugens).
After the desired period of time, the effect in % is determined. 100% means that all plant hoppers have been killed; 0% means that none of the plant hoppers have been killed.

Setting [4] is: compounds of formula (I-2-b), HPLC reversed-phase C18, 43° C., acidic range pH 2.3, 0.1% aqueous phosphoric acid/acetonitrile.
[5] abbreviates: summer wheat, 25 g of a.i./ha, 10 days after application.
The mark [6] stands for this setting: summer wheat, 50 g of a.i./ha, 10 days after application.
[7] abbreviates: summer wheat, 100 g of a.i./ha, 10 days after application.
The mark [8] stands for this setting: HPLC, reversed-phase C18, 43° C., acidic range pH 2.3 (0.1% aqueous phosphoric acid/acetonitrile).
Setting [9] is: compounds of formula (I-2-a), HPLC reversed-phase C18, 43° C., acidic range pH 2.3, 0.1% aqueous phosphoric acid/acetonitrile.
The mark [10] stands for this setting: HPLC, reversed-phase C18, 43° C., acidic range pH 2.3 (0.1% aqueous phosphoric acid/acetonitrile), table of formula (I-2-c).

On to `COC1CCC2(CC1)OC(=O)C(c1cc(C)ccc1I)=C2OC(=O)C(C)(C)C` (single isomer, unassigned) [Example I-2-b-6], for which, in data set [1] (setting [4]), the logP was found to be 4.57. Same read-out and setting: in the case of `COC1CCC2(CC1)OC(=O)C(c1cc(C)ccc1I)=C2OC(=O)C(C)(C)C` (single isomer, unassigned) [Example I-2-b-7] it was 4.24; in that of `COC1CCC2(CC1)OC(=O)C(c1c(C)cc(I)cc1C)=C2OC(=O)C(C)(C)C` (single isomer, unassigned) [Example I-2-b-12], 5.21; in that of `COC1CCC2(CC1)OC(=O)C(c1c(C)cc(I)cc1C)=C2OC(=O)C(C)(C)C` (single isomer, unassigned) [Example I-2-b-13], 4.9. For the compound `Cc1cc(C)c(C2=C(O)C3(CCC(C)CC3)NC2=O)c(I)c1` (stereo not shown) [Example I-1-a-3], the “Summer wheat observed (%)” value in data set [2] (summer wheat, 12.5 g of a.i./ha, 10 days after application) came to 10%; in data set [2] (setting [5]), 20%; in data set [2] (setting [6]) it was 30%; in data set [2] (setting [7]), 40%. For the compound `CCOC(=O)OC1=C(c2c(C)cc(I)cc2CC)C(=O)NC12CCC(OC)CC2` (stereo not shown) [Example I-1-c-1], the “Summer wheat observed (%)” value in data set [2] (the 20th table, summer wheat, 12.5 g of a.i./ha, 10 days after application) was 50%.

Take `CC1(C)OC(=O)C(c2ccccc2I)=C1O` [Example I-2-a-1]: the “log P” value in data set [1] (setting [8]) came to 1.80. With `COC1CCC2(CC1)OC(=O)C(c1ccccc1I)=C2O` (stereo not shown) [Example I-2-a-2], the “efficacy (plant hoppers killed)” value in data set [3] is listed as no less than 80%. For the same compound, the logP in data set [1] (setting [9]) is recorded as 1.92. In turn, `COC1CCC2(CC1)OC(=O)C(c1cc(C)ccc1I)=C2O` (stereo not shown) [Example I-2-a-4] returned a logP in data set [1] (setting [9]) of 2.19.

In data set [1] (setting [9]), `CCc1cc(I)cc(C)c1C1=C(O)C2(CCOCC2)OC1=O` [Example I-2-a-5] returned a logP of 2.63.

As to `CCc1cc(I)cc(C)c1C1=C(O)C2(CCC(OC)CC2)OC1=O` (stereo not shown) [Example I-2-a-6], the logP in data set [1] (setting [9]) was determined as 2.92. The same measure, in the same setting: the same measure for `COC1CCC2(CC1)OC(=O)C(c1c(C)cc(I)cc1C)=C2O` (stereo not shown) [Example I-2-a-9]: 2.94.

For the compound `CC(C)C(=O)OC1=C(c2ccccc2I)C(=O)OC1(C)C` [Example I-2-b-1], the lipophilicity (log P) in data set [1] (setting [8]) stood at 3.53. The compound `COC1CCC2(CC1)OC(=O)C(c1ccccc1I)=C2OC(=O)C(C)(C)C` (stereo not shown) [Example I-2-b-2] displayed a log partition coefficient (logP) in data set [1] (setting [4]) of 3.95. The same measure, in the same setting: in the case of `COC1CCC2(CC1)OC(=O)C(c1ccccc1I)=C2OC(=O)C(C)C` (stereo not shown) [Example I-2-b-3] it was 3.6. As to `CC(C)(C)C(=O)OC1=C(c2ccccc2I)C(=O)OC1(C)C` [Example I-2-b-4], in data set [1] (setting [4]), the logP is 3.87. In the case of `Cc1ccc(I)c(C2=C(OC(=O)C(C)(C)C)C3(CCCC3)OC2=O)c1` [Example I-2-b-5], the logP in data set [1] (setting [4]) came out at 4.68. As for `CCc1cc(I)cc(C)c1C1=C(OC(=O)C(C)C)C2(CCOCC2)OC1=O` [Example I-2-b-9], the logP in data set [1] (setting [4]) came to 4.42. Take `CCc1cc(I)cc(C)c1C1=C(OC(=O)C(C)C)C2(CCC(OC)CC2)OC1=O` (stereo not shown) [Example I-2-b-10]: the “Summer wheat observed (%)” value amounted to 15% in data set [2] (setting [5]); 25% in data set [2] (summer wheat, 25 g of a.i./ha, 28 days after application); 30% in data set [2] (setting [6]); 40% in data set [2] (summer wheat, 50 g of a.i./ha, 28 days after application); 50% in data set [2] (setting [7]); 50% in data set [2] (summer wheat, 100 g of a.i./ha, 28 days after application). The “Summer wheat observed (%)” value stood at 70% in data set [2] (summer wheat, 200 g of a.i./ha, 10 days after application); 75% in data set [2] (summer wheat, 200 g of a.i./ha, 28 days after application); 60% in data set [2] (the 21st table second column (also headed Summer wheat), 25 g of a.i./ha, 10 days after application); 65% in data set [2] (the 21st table second column (also headed Summer wheat), 50 g of a.i./ha, 10 days after application). The log partition coefficient (logP) in data set [1] (setting [4]) was 4.79. For the compound `Cc1cc(I)cc(C)c1C1=C(OC(=O)C(C)(C)C)C2(CCCC2)OC1=O` [Example I-2-b-11], in data set [1] (setting [4]), the lipophilicity (logP) was 5.26. Regarding `CC(C)OC(=O)OC1=C(c2ccccc2I)C(=O)OC1(C)C` [Example I-2-c-1], in data set [1] (setting [8]), the “log P” value is on record as 3.47.

Take `Cc1ccc(I)c(C2=C(O)C3(CCCC3)OC2=O)c1` [I-2-a-3]: the logP in data set [1] (setting [9]) was 2.51. In data set [1] (setting [9]), `CCc1cc(I)cc(C)c1C1=C(O)C(C)(C)OC1=O` [I-2-a-7] had a logP of 2.81. Same read-out and setting: in the case of `CCc1cc(I)cc(C)c1C1=C(O)C2(CCCC2)OC1=O` [I-2-a-8] it was 3.00. Consider `CCc1cc(I)cc(C)c1C1=C(OC(=O)C(C)C)C(C)(C)OC1=O` [I-2-b-8], for which the logP in data set [1] (setting [4]) turned out to be 4.72. For `COC1CCC2(CC1)OC(=O)C(c1ccccc1I)=C2OC(=O)OC(C)C` (stereo not shown) [I-2-c-2], the logP in data set [1] (setting [10]) was 3.54.

Compound `CCc1cc(I)cc(C)c1C1=C(OC(=O)OC(C)C)C(C)(C)OC1=O` [I-2-c-3] had a logP in data set [1] (setting [10]) of 4.66. Compound `CCc1cc(I)cc(C)c1C1=C(OC(=O)OC(C)C)C2(CCC(OC)CC2)OC1=O` (stereo not shown) [I-2-c-4] registered a logP in data set [1] (setting [10]) of 4.77. The compound `CCc1cc(I)cc(C)c1C1=C(OC(=O)OC(C)C)C2(CCOCC2)OC1=O` [I-2-c-5] had a logP in data set [1] (setting [10]) of 4.41.

Source of the values: patent publication US8629084B2, “Iodine-phenyl-substituted cyclic cetoenols” (Bayer CropScience AG, priority 2004, dated 2014).
